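Exposure lasted 48 hours, with cells grown in 96-well plates and compounds tested at five concentrations. TGI marks complete inhibition of growth.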
Assays:
Assay in all cases: NCI anticancer screen, dose series, 48 h
MDA-MB-435 = system: MDA-MB-435
MALME-3M melanoma = system: MALME-3M melanoma
HCT-116 colon = system: HCT-116 colon
CAKI-1 renal = system: CAKI-1 renal
UO-31 renal = system: UO-31 renal
SF-539 CNS = system: SF-539 CNS
UACC-62 melanoma = system: UACC-62 melanoma
786-0 renal = system: 786-0 renal
HT29 colon = system: HT29 colon
HCT-15 colon = system: HCT-15 colon

| Structure (SMILES) | TGI (MDA-MB-435) [µM] | TGI (MALME-3M melanoma) [µM] | TGI (HCT-116 colon) [µM] | TGI (CAKI-1 renal) [µM] | TGI (UO-31 renal) [µM] | TGI (SF-539 CNS) [µM] | TGI (UACC-62 melanoma) [µM] | TGI (786-0 renal) [µM] | TGI (HT29 colon) [µM] | TGI (HCT-15 colon) [µM] |
| --- | --- | --- | --- | --- | --- | --- | --- | --- | --- | --- |
| N=C(N)SCCCN | 14 | 29.1 | 30.7 | > 69.9 | 37.5 | 30.9 | 35 | 66.1 | 62.3 | > 100 |
| CC(C)(C)OC(=O)NCC(=O)NC1C/C(=N\O)c2sccc21 (stereo unspecified) | > 100 | > 100 | > 100 | > 100 | > 100 | > 100 | > 100 |  | > 100 | > 100 |
| CN(C)Cc1cc(C(=O)/C=C/c2cccc(Cl)c2)cc(CN(C)C)c1O | 12.6 |  | 13.3 | 4.3 | 19.5 | 19.5 | 22.3 | 15.7 | 16.6 | 12.7 |
| COC(=O)C1=C(C)N(NC(=O)c2ccccc2)C2(O)CCCC(=O)C12C (stereo unspecified) |  | > 100 | > 100 | > 100 | > 100 | > 100 | > 100 |  | > 100 | > 100 |
| Cc1ccnc(NC(=S)Nc2cccc(Cl)c2)c1 | > 100 |  | > 100 | > 100 | > 100 | > 100 | > 100 | > 100 | > 100 | > 100 |
| CC1=C[C@@H](C)C[C@]2(C)CC[C@H](O2)[C@]23CC[C@](C)(C[C@H](O2)[C@@H]2O[C@@](C)(CC2=O)[C@@H](O)[C@H]2CC[C@@]4(CCC[C@@H](O4)[C@H](C)C(=O)O[C@H]4C[C@H]([C@]5(O)OCC[C@H](C)[C@@H]5O)O[C@H]4C=C1)O2)O3 |  |  |  | 0.00515 | 0.0231 | 0.00503 |  | 0.181 | > 10 | > 10 |
| COc1ccc2c(c1OC)C(=O)O[C@@H]2[C@H]1c2cc3c(cc2CCN1C)OCO3 | > 100 |  | > 100 | > 100 | > 100 | > 100 | > 100 | > 100 | > 100 | > 100 |
| Cc1cc(C)c2c(=N)c3ccccc3n(CCCCCCO)c2n1 | 16.7 | 5.95 |  | 8.31 | 6.01 | 9.48 | 8.89 | 9.53 | 3.93 | 9.69 |
| CNC(=S)N/N=C(\C)c1nc2ncccc2[nH]1 | > 100 | > 100 | > 100 | 99.1 | 40.6 | > 100 |  | > 100 | > 100 | > 100 |
| N#CC1(c2ccccc2)CCN(C2(c3ccccc3)CCCCC2)CC1 | > 100 | > 100 | > 100 | > 100 | > 100 |  | > 100 | > 100 | > 100 | > 100 |
| O=C1c2ccccc2-c2nc(-c3ccccc3)cc3c2c1nc1ccccc13 | 3.51 | 12.8 | 36.5 | 74.9 | 84.1 |  | 9.7 | > 100 | 25.9 | 28.5 |
| C/C=C/[C@H]1O[C@@](O)([C@@H](C)[C@H](O)[C@H](C)[C@H]2OC(=O)/C(OC)=C/C(C)=C/[C@@H](C)[C@@H](O)[C@@H](CC)[C@@H](O)[C@H](C)C/C(C)=C/C=C/[C@@H]2OC)C[C@H](OC2CC(O)C(OC(N)=O)C(C)O2)[C@@H]1C (stereo partly specified) | 14.8 | 0.73 | 14 | 14.4 |  |  | 13.2 | 15.7 | 1.59 | 12.6 |
| CCC(=O)NC(OCC1(CC)COC1)(C(F)(F)F)C(F)(F)F | > 100 | > 100 | > 100 |  | > 100 | > 100 | > 100 |  | > 100 | > 100 |
| CC(=O)Nc1ccc(C(=O)NN2C(=O)C(Cl)C2c2ccc(O)cc2)cc1 (stereo unspecified) |  | > 100 | > 100 | > 100 | > 100 | > 100 | > 100 | > 100 | > 100 | > 100 |
| CC(=O)CC(C)(C)NC(=O)[C@@]1(O)CC[C@H]2[C@@H]3CCC4=CC(=O)CC[C@@H]4[C@H]3CC[C@@]21C | > 100 | > 100 | > 100 |  | > 100 | > 100 | > 100 | > 100 | > 100 | > 100 |
| CN(/N=N/c1nc[nH]c1C(N)=O)C1CCCCC1 |  | > 100 | > 100 |  |  | > 100 | > 100 |  | > 100 | > 100 |
| C#CCSc1nc(N)c2ncn(C3OC(COP(=O)(O)O)C(O)C3O)c2n1 (stereo unspecified) |  | > 239 | > 239 | > 239 | > 239 | > 239 | > 239 | > 239 | > 239 | > 239 |
| C/C(=C\Cc1cc(O)ccc1O)CCc1c(C)c(O)c(O)c(C=O)c1C |  | 80.2 | 40.3 | 85.6 | 98.8 | 42.1 |  | 62.2 | 64.8 | > 100 |
| ONC1=Nc2ccccc2OCc2cc(Br)c(Br)cc2COc2ccccc2N=C1NO | > 54.3 | 42.1 | 32.9 | 29.3 | > 54.4 |  | 35.7 | > 44.3 | > 43.5 | > 44.4 |
| COc1cc(/C=N\NC(=O)C[N+](C)(C)C)cc(OC)c1OC | > 10 | > 10 | > 10 | > 10 |  | > 10 | > 10 | > 10 | > 10 | > 10 |
| N#CC12C(=O)N3C(=NC(c4ccccc4)NC3c3ccccc3)C1(C#N)C(c1ccccc1)NC1=C2CCCC1 (stereo unspecified) | > 100 | > 100 | > 100 | > 100 | > 100 |  | > 100 | > 100 | > 100 | > 100 |
| CC(=O)O[C@H]1CN(S(=O)(=O)c2ccc(C)cc2)C[C@@H]1C1CCCCC1 | 70.5 |  |  | 83.7 | > 100 | 10.5 | 61.7 |  | 84.7 | > 100 |
| Cc1cc(S(=O)(=O)Nc2nc3ccccc3n2-c2ccccc2)c(S)cc1Cl | > 100 | > 100 | > 100 | > 100 | > 100 | > 100 | > 100 | > 100 |  | > 100 |
